# Tested on: bromodomain
# Test: at least one of the bromodomain cell assays of Example 57
# Format: cell-based
# Conditions: at least one of the bromodomain cell assays described in Example 57; read-out: IC50 in at least one of the bromodomain cell assays
row,SMILES,IC50 [µM]
1,"CCOC(=O)c1ccc(-c2cn([C@@H](c3ccccc3)c3ccccn3)c3cc(-c4c(C)noc4C)cnc23)cc1 [P-0716, ethyl 4-[6-(3,5-dimethylisoxazol-4-yl)-1-[(S)-phenyl(2-pyridyl)methyl]pyrrolo[3,2-b]pyridin-3-yl]benzoate]",< 10
2,"COC(=O)c1ccc(-c2cn(CC3CCCCC3)c3cc(-c4c(C)noc4C)cnc23)cc1 [P-0706, methyl 4-[1-(cyclohexylmethyl)-6-(3,5-dimethylisoxazol-4-yl)pyrrolo[3,2-b]pyridin-3-yl]benzoate]",< 10
3,"Cc1noc(C)c1-c1ccc2c(-c3ccc(C#N)nc3)cn([C@@H](c3ccccc3)c3ccccn3)c2c1 [P-0754, 5-[6-(3,5-dimethylisoxazol-4-yl)-1-[(S)-phenyl(2-pyridyl)methyl]indol-3-yl]pyridine-2-carbonitrile]",< 10
4,"Cc1noc(C)c1-c1ccc2c(-c3ccc(C(=O)O)cc3)cn(CC3(C)CCCCC3)c2c1 [P-0779, 4-[6-(3,5-dimethylisoxazol-4-yl)-1-[(1-methylcyclohexyl)methyl]indol-3-yl]benzoic acid]",< 10
5,"Cc1noc(C)c1-c1cnc2c(-c3ccc(C4(C(=O)O)CC4)cc3)cn(CC3(C)CCOCC3)c2c1 [P-0777, 1-[4-[6-(3,5-dimethylisoxazol-4-yl)-1-[(4-methyltetrahydropyran-4-yl)methyl]pyrrolo[3,2-b]pyridin-3-yl]phenyl]cyclopropanecarboxylic acid]",< 10
6,"Cc1noc(C)c1-c1cnc2c(-c3ccc(CO)cc3)cn([C@H](c3ccccc3)c3ccccn3)c2c1 [P-0724, [4-[6-(3,5-dimethylisoxazol-4-yl)-1-[(R)-phenyl(2-pyridyl)methyl]pyrrolo[3,2-b]pyridin-3-yl]phenyl]methanol]",< 10
7,"Cn1cc(-c2cnc3c(-c4ccc(C(=O)O)cc4)cn(CC4CCCCC4)c3c2)cc(Cl)c1=O [P-0764, 4-[6-(5-chloro-1-methyl-6-oxo-3-pyridyl)-1-(cyclohexylmethyl)pyrrolo[3,2-b]pyridin-3-yl]benzoic acid]",< 10
8,"Cc1noc(C)c1-c1cnc2c(-c3ccc4c(c3)CCOC4=O)cn(CC3CCC(F)(F)CC3)c2c1 [P-0798, 6-[1-[(4,4-difluorocyclohexyl)methyl]-6-(3,5-dimethylisoxazol-4-yl)pyrrolo[3,2-b]pyridin-3-yl]isochroman-1-one]",< 10
9,"CCOC(=O)c1ccc(-c2cn([C@H](c3ccccc3)c3ccccn3)c3cc(-c4c(C)noc4C)cnc23)cc1 [P-0727, ethyl 4-[6-(3,5-dimethylisoxazol-4-yl)-1-[(R)-phenyl(2-pyridyl)methyl]pyrrolo[3,2-b]pyridin-3-yl]benzoate]",< 10
10,"Cc1noc(C)c1-c1cnc2c(-c3ccc(C(=O)O)cc3)cn([C@@H](c3ccccn3)C3CCCC3)c2c1 [P-0820, 4-[1-[(R)-cyclopentyl(2-pyridyl)methyl]-6-(3,5-dimethylisoxazol-4-yl)pyrrolo[3,2-b]pyridin-3-yl]benzoic acid]",< 10
11,"Cc1noc(C)c1-c1cnc2c(-c3ccc4c(c3)COC4=O)cn(CC3CCC(F)(F)CC3)c2c1 [P-0796, 5-[1-[(4,4-difluorocyclohexyl)methyl]-6-(3,5-dimethylisoxazol-4-yl)pyrrolo[3,2-b]pyridin-3-yl]-3H-isobenzofuran-1-one]",< 10
12,Cc1ccc(-c2cn(CC3CCCCC3)c3cc(-c4c(C)noc4C)cnc23)cc1 [P-0622],< 10
13,"[2H]C([2H])([2H])c1noc(C([2H])([2H])[2H])c1-c1cnc2c(-c3cnn(CC(F)(F)F)c3)cn(CC3CCC(F)(F)CC3)c2c1 [P-0615, 4-[1-[(4,4-difluorocyclohexyl)methyl]-3-[1-(2,2,2-trifluoroethyl)pyrazol-4-yl]pyrrolo[3,2-b]pyridin-6-yl]-3,5-bis(trideuteriomethyl)isoxazole]",< 10
14,"Cc1noc(C)c1-c1cnc2c(-c3ccc4c(c3)OC(=O)C4)cn(CC3CCC(F)(F)CC3)c2c1 [P-0800, 6-[1-[(4,4-difluorocyclohexyl)methyl]-6-(3,5-dimethylisoxazol-4-yl)pyrrolo[3,2-b]pyridin-3-yl]-3H-benzofuran-2-one]",< 10
